One block for each compound: values may come before it.
Assays:
[1] = Ferric-reducing antioxidant power (FRAP) assay; conditions: Trolox equivalents
Protocol: (§1) The ferric-reducing antioxidant power (FRAP) assay was carried out according to a previously described method. The cupric-reducing antioxidant capacity (CUPRAC) assay was performed according to literature. Results are expressed as mmoles Trolox equivalents/kg PEE. Catechin was used as a positive control in both assays.

[2] = Cupric-reducing antioxidant capacity (CUPRAC) assay; conditions: Trolox equivalents
Protocol: as §1

[3] = DPPH discoloration assay
Protocol: (§2) The scavenging capacity of the G. decorticans PEEs was evaluated against the free radicals DPPH and superoxide anion. The discoloration of the DPPH radical was carried out according to literature. The scavenging of the superoxide anion was evaluated following a previously described method. Results are presented as the amount of extract that is able to scavenge 50% of the radicals (SC50, μg PEE/mL).

[4] = Scavenging of superoxide anion generated by xanthine oxidase; type: biochemical
Protocol: The superoxide anion generated by xanthine oxidase can be scavenged by polyphenols. In this assay, the flavonol catechin was used as a positive control, showing a SC50 of 8.7 ± 0.1 μg/mL. All G. decorticans fruit PEEs were able to scavenge the superoxide anion, with SC50 values between 14.5–44.2 μg/mL, with the exception of the sample from El Transito II that only scavenged 45.1% the radical at 50 μg/mL.
as §2

[5] = target: T1, COX-1 (Ovis aries, UniProt P05979); assay: Cyclooxygenase inhibition, commercial kit (COX-1); type: biochemical; conditions: at 50 μg/mL
T1 construct: purchased Cayman Chemical 560131
T1 sequence (P05979 25-600): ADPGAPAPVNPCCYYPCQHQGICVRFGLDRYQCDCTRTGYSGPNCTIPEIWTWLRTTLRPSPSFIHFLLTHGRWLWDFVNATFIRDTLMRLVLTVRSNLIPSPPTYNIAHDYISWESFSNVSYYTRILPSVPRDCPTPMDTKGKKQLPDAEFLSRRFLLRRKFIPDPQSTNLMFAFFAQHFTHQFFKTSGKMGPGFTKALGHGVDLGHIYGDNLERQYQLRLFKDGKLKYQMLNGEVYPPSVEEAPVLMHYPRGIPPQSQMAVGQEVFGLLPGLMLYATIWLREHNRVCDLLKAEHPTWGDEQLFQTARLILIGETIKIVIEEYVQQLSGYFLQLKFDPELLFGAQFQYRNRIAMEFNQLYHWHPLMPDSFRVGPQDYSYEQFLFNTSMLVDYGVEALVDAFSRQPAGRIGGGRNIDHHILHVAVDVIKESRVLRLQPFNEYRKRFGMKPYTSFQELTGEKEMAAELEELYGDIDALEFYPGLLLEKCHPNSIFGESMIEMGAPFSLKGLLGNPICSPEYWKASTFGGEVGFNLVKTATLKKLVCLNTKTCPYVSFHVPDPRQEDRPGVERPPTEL
Protocol: COX inhibitory activity was determined using a commercial kit (560131, Cayman Chemical, Ann Arbor, MI, USA). Enzyme and samples (50 μg PEE/mL) were pre-incubated during 10 min and then arachidonic acid was added. The reaction was conducted for exactly 2 min at 37 °C and halted in boiling water for 5 min. […] Results were expressed as a percentage of inhibition of PGF2α production. The commercial anti-inflammatory compound nimesulide was included as the reference compound [4].

[6] = target: T2, COX-2 (Homo sapiens, UniProt P35354); assay: Cyclooxygenase inhibition, commercial kit (COX-2); type: biochemical; conditions: read-out: COX-2% Inhibition
T2 construct: purchased Cayman Chemical 560131
T2 sequence (P35354 18-604): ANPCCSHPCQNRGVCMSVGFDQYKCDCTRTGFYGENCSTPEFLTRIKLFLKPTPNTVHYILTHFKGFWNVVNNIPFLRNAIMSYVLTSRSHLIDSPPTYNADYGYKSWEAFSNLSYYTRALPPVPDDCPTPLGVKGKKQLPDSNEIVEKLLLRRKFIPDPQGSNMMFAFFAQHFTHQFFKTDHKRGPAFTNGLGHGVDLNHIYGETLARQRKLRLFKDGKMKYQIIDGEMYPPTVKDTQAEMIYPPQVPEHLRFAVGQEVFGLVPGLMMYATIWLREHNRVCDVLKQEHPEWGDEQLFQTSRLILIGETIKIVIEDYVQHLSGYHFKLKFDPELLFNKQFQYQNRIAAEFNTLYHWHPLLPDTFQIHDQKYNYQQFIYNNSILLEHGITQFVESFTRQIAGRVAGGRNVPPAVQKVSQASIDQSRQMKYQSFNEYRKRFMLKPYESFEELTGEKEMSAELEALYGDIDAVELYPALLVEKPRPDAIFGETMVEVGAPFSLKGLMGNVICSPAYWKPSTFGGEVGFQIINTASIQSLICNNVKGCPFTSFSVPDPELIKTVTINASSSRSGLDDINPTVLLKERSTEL
Protocol: Enzyme and samples (50 μg PEE/mL) were pre-incubated during 10 min and then arachidonic acid was added. The reaction was conducted for exactly 2 min at 37 °C and halted in boiling water for 5 min. […] Results were expressed as a percentage of inhibition of PGF2α production.

[7] = target: T3, sPLA2 (Homo sapiens, UniProt P39877); assay: Secretory phospholipase A2 inhibition, colorimetric kit; type: biochemical; conditions: read-out: sPLA2 % Inhibition
T3 construct: purchased Cayman Chemical 10004883
T3 sequence (P39877 21-138): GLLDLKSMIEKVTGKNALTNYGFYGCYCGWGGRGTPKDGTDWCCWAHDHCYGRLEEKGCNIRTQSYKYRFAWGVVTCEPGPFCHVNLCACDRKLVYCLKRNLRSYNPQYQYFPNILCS
Protocol: The sPLA2 inhibitory activity was determined using a colorimetric kit (10004883, Cayman Chemical). Enzyme and samples (200–100 μg PEE/mL) were mixed, and then the substrate (diheptanoyl Thio-PC) was added, and incubated during 15 min at 25 °C. Then, DTNB (Ellman’s reagent) was added and absorbance was read at 415 nm. Results are expressed as a percentage of inhibition or IC50 (μg PEE/mL). Ursolic acid was used as the reference compound [37].

[8] = target: porcine pancreas lipase; parameters: method as in PMID 28454959; conditions: commercial polyphenol standards; cited from earlier work

SMILES: O.Oc1cc(O)c2c(c1)O[C@H](c1ccc(O)c(O)c1)[C@@H](O)C2 [Catechin]
FRAP [1]: 5.4 ± 0.1 mmol TE/g PEE
CUPRAC [2]: 13.4 ± 0.3 mmol TE/g PEE
DPPH SC50 ([3]; Table 1, fruit PEEs): 11.4 ± 1.6 µg/mL
DPPH SC50 ([3]; Table 4, Diego de Almagro PEE and Sephadex LH-20 fractions): 11.4 ± 1.6 µg/mL
O2 Scavenging SC50 [4]: 8.7 ± 0.1 µg/mL

inhibition at 50 µg/mL [5]: 100%
inhibition at 50 µg/mL [6]: 100%
SMILES: CS(=O)(=O)Nc1ccc([N+](=O)[O-])cc1Oc1ccccc1 [Nimesulide]

SMILES: C[C@H]1[C@H](C)CC[C@]2(C(=O)O)CC[C@]3(C)C(=CC[C@@H]4[C@@]5(C)CC[C@H](O)C(C)(C)[C@@H]5CC[C@]43C)[C@H]12 [Ursolic acid]
inhibition at 50 µg/mL [7]: 26.7 ± 0.7%

SMILES: O=C(O[C@@H]1Cc2c(O)cc(O)cc2O[C@@H]1c1cc(O)c(O)c(O)c1)c1cc(O)c(O)c(O)c1 [epigallocatechin gallate]
IC50 [8]: 391 µM

SMILES: Oc1cc(O)c2c(c1)O[C@H](c1cc(O)c(O)c(O)c1)[C@H](O)C2 [epigallocatechin]
IC50 [8]: 237 µM

SMILES: O=C(O)c1cc(O)c(O)c(O)c1 [gallic acid]
IC50 [8]: 387 µM
